# Experimental data reported in US7485637B2, “Benzoyl-tetrahydropiperidine derivatives” (Hoffmann-La Roche Inc., priority 2005, dated 2009).
# Target: T1, mGlyT-1b (Mus musculus, UniProt P28571)
# T1 construct: host or cells: Flp-in-CHO
# T1 sequence (P28571 1-651 isoform P28571-2): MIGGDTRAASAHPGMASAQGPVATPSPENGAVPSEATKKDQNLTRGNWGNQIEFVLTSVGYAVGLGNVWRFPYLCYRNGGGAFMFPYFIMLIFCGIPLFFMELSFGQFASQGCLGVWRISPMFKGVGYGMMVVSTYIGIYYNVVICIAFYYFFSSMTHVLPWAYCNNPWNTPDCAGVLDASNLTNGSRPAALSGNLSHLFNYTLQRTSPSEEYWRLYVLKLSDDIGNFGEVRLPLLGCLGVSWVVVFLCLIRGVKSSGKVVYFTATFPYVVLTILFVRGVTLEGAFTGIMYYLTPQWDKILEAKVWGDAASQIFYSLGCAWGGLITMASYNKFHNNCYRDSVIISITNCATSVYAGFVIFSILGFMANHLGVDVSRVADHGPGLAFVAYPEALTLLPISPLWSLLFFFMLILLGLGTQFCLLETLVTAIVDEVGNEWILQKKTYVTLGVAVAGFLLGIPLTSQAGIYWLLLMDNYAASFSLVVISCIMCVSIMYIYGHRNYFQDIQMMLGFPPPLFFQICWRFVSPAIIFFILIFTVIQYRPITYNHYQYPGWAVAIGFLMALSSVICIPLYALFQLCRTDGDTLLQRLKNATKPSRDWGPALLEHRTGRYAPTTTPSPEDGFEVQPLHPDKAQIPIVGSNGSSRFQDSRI
# Assay: Glycine Uptake Inhibition Assay (mGlyT-1b)
# Format: cell-based
# Conditions: [3H]-glycine uptake, Flp-in-CHO cells transfected with mGlyT-1b cDNA, 20 min preincubation at 22° C.; read-out: IC50 (μM) at GlyT-1
# Protocol: DMEM complete medium: Nutrient mixture F-12 (Gibco Life-technologies), fetal bovine serum (FBS) 5%, (Gibco life technologies), Penicillin/Streptomycin 1% (Gibco life technologies), Hygromycin 0.6 mg/ml (Gibco life technologies), Glutamine 1 mM Gibco life technologies)
# Uptake buffer (UB): 150 mM NaCl, 10 mM Hepes-Tris, pH 7.4, 1 mM CaCl2, 2.5 mM KCl, 2.5 mM MgSO4, 10 mM (+) D-glucose.
# Flp-in™-CHO (Invitrogen Cat n° R758-07) cells stably transfected with mGlyT1b cDNA.
# Glycine Uptake Inhibition Assay (mGlyT-1b)
# On day 1 mammalian cells, (Flp-in™-CHO), transfected with mGlyT-1b cDNA, were plated at the density of 40,000 cells/well in complete F-12 medium, without hygromycin in 96-well culture plates. On day 2, the medium was aspirated and the cells were washed twice with uptake buffer (UB). The cells were then incubated for 20 min at 22° C. with either (i) no potential competitor, (ii) 10 mM non-radioactive glycine, (iii) a concentration of a potential inhibitor. A range of concentrations of the potential inhibitor was used to generate data for calculating the concentration of inhibitor resulting in 50% of the effect (e.g. IC50, the concentration of the competitor inhibiting glycine uptake of 50%). A solution was then immediately added containing [^3H]-glycine 60 nM (11-16 Ci/mmol) and 25 μM non-radioactive glycine. The plates were incubated with gentle shaking and the reaction was stopped by aspiration of the mixture and washing (three times) with ice-cold UB. The cells were lysed with scintillation liquid, shaken 3 hours and the radioactivity in the cells was counted using a scintillation counter.
row,SMILES,IC50 [µM]
1,"O=C(c1cc([N+](=O)[O-])ccc1N1CCOCC1)N1CC=C(c2ccccc2)CC1 [Example 1, (2-Morpholin-4-yl-5-nitro-phenyl)-(4-phenyl-3,6-dihydro-2H-pyridin-1-yl)-methanone]",0.803
2,"CS(=O)(=O)c1ccc(OCC(F)(F)F)c(C(=O)N2CC=C(c3ccc(C(F)(F)F)cc3)CC2)c1 [Example 4, [5-Methanesulfonyl-2-(2,2,2-trifluoro-ethoxy)-phenyl]-[4-(4-trifluoromethyl-phenyl)3,6-dihydro-2H-pyridin-1-yl]-methanone]",0.122
3,"CS(=O)(=O)c1ccc(N2CCOCC2)c(C(=O)N2CC=C(c3ccc(C(F)(F)F)cc3)CC2)c1 [Example 5, (5-Methanesulfonyl-2-morpholin-4-yl-phenyl)-[4-(4-trifluoromethyl-phenyl)-3,6 dihydro-2H-pyridin-1-yl]-methanone]",0.232
4,"CC(C)Oc1ccc(C#N)cc1C(=O)N1CC=C(c2ccc(Cl)cc2)CC1 [Example 9, 3-[4-(4-Chloro-phenyl)-3,6-dihydro-2H-pyridine-1-carbonyl]-4-isopropoxy-benzonitrile]",0.28
5,"CS(=O)(=O)c1ccc(C2=CCN(C(=O)c3cc(S(C)(=O)=O)ccc3OC3CCCC3)CC2)cc1 [Example 8, (2-Cyclopentyloxy-5-methanesulfonyl-phenyl)-[4-(4-methanesulfonyl-phenyl)-3,6-dihydro-2H-pyridin-1-yl]-methanone]",0.201
6,"N#Cc1ccc(C2=CCN(C(=O)c3cc([N+](=O)[O-])ccc3N3CCOCC3)CC2)cc1 [Example 3, 4-[1-(2-Morpholin-4-yl-5-nitro-benzoyl)-1,2,3,6-tetrahydro-pyridin-4-yl]benzonitrile]",0.27
7,"CC(C)Oc1ccc(S(C)(=O)=O)cc1C(=O)N1CC=C(c2ccc(S(C)(=O)=O)cc2)CC1 [Example 7, (2-Isopropoxy-5-methanesulfonyl-phenyl)-[4-(4-methanesulfonyl-phenyl)-3,6-dihydro-2H-pyridin-1-yl]-methanone]",0.87
8,"CS(=O)(=O)c1ccc(OCC2CC2)c(C(=O)N2CC=C(c3ccc(Cl)cc3)CC2)c1 [Example 10, [4-(4-Chloro-phenyl)-3,6-dihydro-2H-pyridin-1-yl]-(2-cyclopropylmethoxy-5-methanesulfonyl-phenyl)-methanone]",0.056
9,"CS(=O)(=O)c1ccc(C2=CCN(C(=O)c3cc([N+](=O)[O-])ccc3N3CCOCC3)CC2)cc1 [Example 6, [4-(4-Methanesulfonyl-phenyl)-3,6-dihydro-2H-pyridin-1-yl]-(2-morpholin-4-yl-5-nitro-phenyl)-methanone]",0.251
10,"O=C(c1cc([N+](=O)[O-])ccc1N1CCOCC1)N1CC=C(c2ccc(Cl)cc2)CC1 [Example 2, [4-(4-Chloro-phenyl)-3,6-dihydro-2H-pyridin-1-yl]-(2-morpholin-4-yl-5-nitrophenyl) methanone]",0.432
